Measurements as given in patent publication US20240206469A1, “PHOSPHORUS USE EFFICIENCY ENHANCERS AS PLANT GROWTH PROMOTORS” (EUROCHEM ANTWERPEN, priority 2021, published 2024).

Test system: Maize B104
Assay: Long-term maize pot experiment, B104 (PHENOVISION)
Format: in vivo, maize cultivar B104
Procedure: Regular Arabidopsis, soybean and maize pot experiments used an unfertilized potting soil, which was supplemented at the start of the experiment with 50 ml H2O containing 0.25 g/l NH4NO3 and 0.44 g/l (high phosphate) or no (maize and soybean) or 0.11 g/l KH2PO (Arabidopsis) for low phosphate conditions. For the sand-based maize pot experiment, sand was supplemented with 50 ml H2O containing 0.25 g/l NH4NO3 and 0.38 g/l (high phosphate) or 0.02 g/l (low phosphate) KH2PO4. Potassium was balanced via addition of KCl. Compound concentration was 10 μM, calculated based on the total water content after watering, and was added at the start of the experiment (Arabidopsis) or once a week (maize). Indexed chlorophyll contents were received via a SPAD 502 Plus Chlorophyll Meter. All parameters in the sand experiment, except the rate of leaf 4 (measured the first 4 days after emergence), were measured 19 days after sowing. Measurements in the pot experiments with potting soil were done after 4 weeks of growth, except for leaf 5, which was measured at 26 days. One long-term maize pot experiment was conducted with the DKC 2931 (2.5 months) and B104 (3 months) cultivars on the PHENOVISION phenotyping platform as described in Frontiers in Plant Science 2021, 12: 640914, except that an unfertilized potting soil was used and that plants were fertilized with a low-phosphate Hoagland solution. The 2.5× overconcentrated low-phosphate Hoagland solution contained 0.034 g/l KH2PO and 200 mL of this solution was applied twice a week. 1.4 mL of a 10 mM compound solution was added each two weeks to each pot, corresponding to 9.6 mg/g nutrients. 13 plants per condition were used. During the experiment, pictures were taken twice a week for each plants from 6 different angles and the top. Pictures were used to extract the plant height and to extract the projected plant area from each side and calculate an estimated plant volume over time.

In the case of CC1CN(CC(=O)c2c(N)n(C)c(=O)n(C)c2=O)c2ccccc2O1 (stereo not shown) [Compound 8, 6-amino-1,3-dimethyl-5-[2-(2-methyl-2,3-dihydro-1,4-benzoxazin-4-yl)acetyl]pyrimidine-2,4-dione], the Plant height (B104, day 15, control 230) is reported as 220 mm, the Estimated volume (B104, day 15, control 311) is reported as 292 cm^3 and the Plant height (B104, day 19, control 246) is reported as 239 mm. For the same molecule, the Estimated volume (B104, day 19, control 465) was 441 cm^3, the Plant height (B104, day 22, control 291) was 288 mm and the Estimated volume (B104, day 22, control 548) was 565 cm^3. It also gave a Plant height (B104, day 26, control 351) of 368 mm, an Estimated volume (B104, day 26, control 623) of 689 cm^3 and a Plant height (B104, day 27, control 416) of 364 mm. The Estimated volume (B104, day 27, control 637) was 552 cm^3, the Plant height (B104, day 29, control 412) was 411 mm and the Estimated volume (B104, day 29, control 788) was 877 cm^3. For the same molecule, the Plant height (B104, day 33, control 424) was 428 mm, the Estimated volume (B104, day 33, control 1146) was 1368 cm^3 and the Plant height (B104, day 36, control 472) was 485 mm. It also gave an Estimated volume (B104, day 36, control 1405) of 1735 cm^3, a Plant height (B104, day 40, control 507) of 547 mm and an Estimated volume (B104, day 40, control 1673) of 2117 cm^3. For the same molecule, the Plant height (B104, day 43, control 551) was 587 mm, the Estimated volume (B104, day 43, control 1795) was 2363 cm^3 and the Plant height (B104, day 47, control 609) was 657 mm. For the same molecule, the Estimated volume (B104, day 47, control 2268) was 2844 cm^3, the Plant height (B104, day 50, control 633) was 692 mm and the Estimated volume (B104, day 50, control 2874) was 3518 cm^3. It also gave a Plant height (B104, day 54, control 544) of 564 mm, an Estimated volume (B104, day 54, control 3143) of 3857 cm^3 and a Plant height (B104, day 57, control 572) of 569 mm. It also gave an Estimated volume (B104, day 57, control 3365) of 4216 cm^3, a Plant height (B104, day 61, control 572) of 609 mm and an Estimated volume (B104, day 61, control 3936) of 5052 cm^3. The Plant height (B104, day 63, control 514) was 529 mm, the Estimated volume (B104, day 63, control 3808) was 4933 cm^3 and the Plant height (B104, day 68, control 566) was 593 mm. It also gave an Estimated volume (B104, day 68, control 4585) of 5837 cm^3, a Plant height (B104, day 71, control 611) of 629 mm and an Estimated volume (B104, day 71, control 4957) of 5962 cm^3. For the same molecule, the Plant height (B104, day 75, control 569) was 627 mm, the Estimated volume (B104, day 75, control 5016) was 6099 cm^3 and the Plant height (B104, day 78, control 590) was 662 mm. It also gave an Estimated volume (B104, day 78, control 5551) of 6540 cm^3, a Plant height (B104, day 82, control 626) of 685 mm and an Estimated volume (B104, day 82, control 5788) of 6751 cm^3. For the same molecule, the Plant height (B104, day 85, control 677) was 707 mm, the Estimated volume (B104, day 85, control 5957) was 6623 cm^3 and the Plant height (B104, day 89, control 697) was 733 mm. The Estimated volume (B104, day 89, control 5717) was 6434 cm^3, the “Average number of ears” value (Maize pot long term B104, 3 months, low phosphate, control 0.3) was 0.7 and the Shoot weight (Maize pot long term B104, low phosphate, control 28) was 32 g. The “Leaf 6” value (Maize pot long term B104, low phosphate, control 48) was 50 cm.
